According to article PMC12042115 (mLife, 2025):
≈ marks a conversion by molar mass, not a printed value. Like-named read-outs stand apart in the source and are kept apart here.

Experiments:
M. tuberculosis H37Rv [1] = assay: MIC against Mtb H37Rv; assay type: cell-based, Mycobacterium tuberculosis; details: Mycobacterium tuberculosis, H37RV
ClpP1P2 = assay: Jump dilution experiment; assay type: biochemical, Mycobacterium tuberculosis; details: 10 µM, 1 h pre‐incubation, diluted to 100 nM, 4‐h course
[2] = test system: GH200 (scrambled sgRNA control); assay type: cell-based, M. bovis BCG
M. tuberculosis H37Rv [3] = test system: M. tuberculosis H37Rv; parameters: method as in PubChem; details: ref PubChem; cited from earlier work
[4] = test system: ClpP1(7‐200) ClpP2(16‐214) enzyme complex; assay: Intact protein MS; assay type: binding, Mycobacterium tuberculosis; details: 100 μM compound, 10 μM enzyme, 1 h
Method: 10 μM of the ClpP1(7‐200) ClpP2(16‐214) enzyme complex was incubated with DMSO (as negative control) and 100 μM GDI‐5755 separately in 30 mM PIPES buffer only at room temperature in a final reaction volume of 40 μl. After 1 h of incubation, the samples were sent to a service lab at Peking University for a Matrix‐Assisted Laser Desorption/Ionization (MALDI) Time‐of‐Flight (TOF) MS analysis.

[5] = Hydrolysis in protein‐free buffer (data not published); assay type: physicochemical; details: over time
Mtb ClpP1P2 [6] = target: T1, Mtb ClpP1P2 (Mycobacterium tuberculosis, UniProt P9WPC3+P9WPC5); assay: k obs/[I] determination from progress curves; assay type: biochemical; details: no pre‐incubation, 50 nM ClpP1P2, 200 µM substrate
T1 sequence (P9WPC3 16-214, one chain of several): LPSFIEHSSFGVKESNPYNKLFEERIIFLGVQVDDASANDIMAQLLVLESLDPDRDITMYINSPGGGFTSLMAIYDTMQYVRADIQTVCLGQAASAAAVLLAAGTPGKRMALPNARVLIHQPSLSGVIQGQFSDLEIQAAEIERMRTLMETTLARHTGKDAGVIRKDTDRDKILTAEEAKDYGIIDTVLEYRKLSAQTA
Method: 10 µM ClpP1P2 was pre‐incubated with 10 µM GDI‐5755 or DMSO solvent for 60 min at room temperature. To induce the formation of the [EI] complex, 0.5 mM Bz‐HT was also added. The mixture was diluted 100‐, 200‐, or 400‐fold to a 50 µl final volume with the peptidase reaction buffer and 20 μM substrate to start the jump dilution experiment. Fluorescence was recorded every 5 min continuously over a 220‐min course. To determine the k obs of the competitive inhibitor, the compound was dispended into a black 384‐well plate in a twofold concentration gradient from 20 µM to 0.5 µM. Without pre‐incubation, the other components (50 nM ClpP1P2, 200 µM substrate, and 0.5 mM Bz‐HT in the PIPES buffer as above) were added like in the peptidase degradation assay. The progress was monitored by continuously recording the fluorescence readouts. The fluorescence vs reaction time in seconds was fitted into Equation (2) using GraphPad Prism 10. (2) [P]=νst+νi−νs/kobs[1−exp(−kobst)] where P represents the product concentration, v s is the steady‐state reaction rate (0 in this case), v i is the initial rate, t is a time point, and k obs is the first‐order rate constant for onset of inhibition. The k obs values obtained were plotted against the inhibitor concentration and fitted into linear regression to yield k obs/[I] values as the slope, indicating the inhibition potency of the compound.

Mtb ClpP1P2 [7] = target: T1, Mtb ClpP1P2; assay: Mtb ClpP1P2 peptidase assay (library screening and IC50 determination); assay type: biochemical

O=C(Oc1ccc(Cl)cc1)c1ccc(N2CCOCC2)c([N+](=O)[O-])c1 [GDI‐5755]
MIC90 (M. tuberculosis H37Rv [1]): 100 µM (≈ 36.3 µg/mL) | recovery of peptidase activity after jump dilution (ClpP1P2): did not show recovery of peptidase activity | MIC shift against GH200 on ATc induction [2]: did not show shifting | MIC against H37Rv, reported (M. tuberculosis H37Rv [3]): 3.16 µM (≈ 1.15 µg/mL) | mass difference between new species and ClpP1 [4]: 234.30 Da | mass of ClpP2 after treatment [4]: unchanged | stability in protein‐free buffer [5]: susceptible to hydrolysis | inactivation efficiency k obs/[I] (Mtb ClpP1P2 [6]): 178 ± 10.7 M⁻¹ s⁻¹ | IC50 (Mtb ClpP1P2 [7]; Figure 2B, neat/synthesized compounds, read-out: ClpP1P2 IC50): ~2100 nM | IC50 (Mtb ClpP1P2 [7]; enzyme pre‐incubated with inhibitor before adding substrate, decreased to nearly enzyme concentration, read-out: IC50 after prolonged pre‐incubation): ~130 nM | IC50 (Mtb ClpP1P2 [7]; library stocks, concentration–response, read-out: IC50): 2090 nM | IC50 (Mtb ClpP1P2 [7]; resynthesized compound, screening assay conditions, three replicates, read-out: IC50): 2400 ± 70 nM
